Measured values as given in ChEMBL document CHEMBL1811808, “A mechanism-based potent sirtuin inhibitor containing Nε-thiocarbamoyl-lysine (TuAcK)” (Bioorg Med Chem Lett, 2011).
The source made the active and inactive calls. No cut-off for these calls is given here. Square brackets hold non-standard residues; d marks the D form. Peptide text beside a SMILES is read from it. Asu = N[C@@H](CCCCCC(=O)O)C(=O)O

How the values were obtained:
[1] = target: T1, NAD-dependent protein deacetylase sirtuin-1 (Homo sapiens, UniProt Q96EB6); test: Inhibition of human GST-tagged SIRT1 using H2NHK-AcK-LM-COOH as substrate assessed as enzymatic deacetylation product formation after 5 mins by HPLC analysis
T1 sequence (Q96EB6 whole entry): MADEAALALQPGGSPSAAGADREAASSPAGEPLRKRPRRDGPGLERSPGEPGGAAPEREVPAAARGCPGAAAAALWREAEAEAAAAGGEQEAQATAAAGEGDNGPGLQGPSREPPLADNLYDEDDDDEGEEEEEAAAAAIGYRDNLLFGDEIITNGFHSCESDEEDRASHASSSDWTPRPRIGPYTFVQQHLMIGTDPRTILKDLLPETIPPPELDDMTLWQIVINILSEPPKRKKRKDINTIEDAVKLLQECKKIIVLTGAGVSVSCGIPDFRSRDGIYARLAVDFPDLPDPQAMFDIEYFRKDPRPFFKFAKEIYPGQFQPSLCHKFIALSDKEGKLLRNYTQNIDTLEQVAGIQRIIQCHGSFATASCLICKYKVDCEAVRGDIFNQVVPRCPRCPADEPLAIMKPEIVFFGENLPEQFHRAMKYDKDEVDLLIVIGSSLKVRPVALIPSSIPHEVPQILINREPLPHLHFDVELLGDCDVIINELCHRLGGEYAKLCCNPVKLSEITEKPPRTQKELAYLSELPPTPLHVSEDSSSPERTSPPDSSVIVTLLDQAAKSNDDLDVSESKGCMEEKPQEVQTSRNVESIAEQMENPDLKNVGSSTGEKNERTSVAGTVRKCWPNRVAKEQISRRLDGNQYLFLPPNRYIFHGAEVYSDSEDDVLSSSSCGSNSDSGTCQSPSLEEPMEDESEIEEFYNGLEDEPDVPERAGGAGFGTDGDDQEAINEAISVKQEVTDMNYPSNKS

[2] = target: T2, NAD-dependent protein deacetylase sirtuin-1 (Homo sapiens) (UniProt Q96EB6); test: Inhibition of SIRT1 in human HCT116 cells expressing wild type p53 assessed as increase in p53 acetylation at K382 after 10 hr by Western blot analysis; conditions: HCT-116
T2 sequence (whole entry): T1 sequence (Q96EB6 whole entry)

[3] = target: T2, NAD-dependent protein deacetylase sirtuin-1 (Homo sapiens); test: Activity at SIRT1 assessed as formation of alkylamidate intermediate of compound at 0.6 mM after 1 min by MALDI-MS analysis in presence of NAD+
[4] = target: T3, NAD-dependent protein deacetylase sirtuin-2 (Homo sapiens, UniProt Q8IXJ6); test: Inhibition of human full length SIRT2 using H2N-MPSD-AcK-TIGG-COOH as substrate assessed as enzymatic deacetylation product formation after 60 mins by HPLC analysis
T3 sequence (Q8IXJ6 whole entry): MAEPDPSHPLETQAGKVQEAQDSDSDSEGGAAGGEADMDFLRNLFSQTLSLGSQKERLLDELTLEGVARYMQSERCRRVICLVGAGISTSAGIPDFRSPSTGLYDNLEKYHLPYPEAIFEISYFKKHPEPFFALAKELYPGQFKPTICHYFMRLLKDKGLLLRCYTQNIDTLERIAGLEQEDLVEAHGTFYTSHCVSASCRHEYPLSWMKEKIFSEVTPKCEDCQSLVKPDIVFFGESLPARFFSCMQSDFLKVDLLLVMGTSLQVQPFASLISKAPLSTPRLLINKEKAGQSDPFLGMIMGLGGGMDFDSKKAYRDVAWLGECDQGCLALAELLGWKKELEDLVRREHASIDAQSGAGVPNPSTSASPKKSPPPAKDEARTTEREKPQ

CC(=O)NCCC[C@H](NC(=O)[C@H](CCCCNC(N)=S)NC(=O)[C@H](CCCNC(C)=O)NC(C)=O)C(N)=O
IC50 [1]: 89.5 µM
inhibition [2]: Dose-dependent effect
Activity [3]: Active

CC(=O)NCCCC[C@H](NC(=O)[C@H](CCCCCC(N)=O)NC(=O)[C@H](CCCCNC(C)=O)NC(C)=O)C(N)=O (Ac-Lys(Ac)-[Asu](NH2)-Lys(Ac)-NH2)
IC50 [1]: 290 µM
IC50 [4]: 190 µM
